In patent US9045401B2, “Methods for treating or ameliorating a melanoma and killing melanoma cells” (THE REGENTS OF THE UNIVERSITY OF CALIFORNIA, priority 2007, dated 2015):

System: A549 cells
Assay: confocal microscopy of ceramide and caspase 8
Assay type: cell-based, human
Protocol: Confocal microscopy. […] After treatment, the cells were fixed 10 minutes at room temperature with 4% PFA, washed twice with PBS, permeabilized 2 minutes at room temperature with 0.1% triton in PBS and blocked for 30 minutes with sterile 2% BSA in PBS. The staining was performed at room temperature for 2 hours (h), with mouse monoclonal anti-human ceramide (Alexis) and rabbit anti-human caspase 8 (BD Pharmingen) antibodies followed by secondary goat anti-mouse ALEXA FLUOR568™ and goat anti-rabbit ALEXA FLUOR488™ antibodies (Invitrogen). The blue DNA binding dye TOPRO-3™ (Molecular Probes) was added together with the secondary antibodies. The cells were washed three times with PBS between the different incubation steps and the incubation with the secondary fluorescently labeled antibodies was performed in the dark. All antibodies were diluted in PBS. Confocal images were recorded on a Nikon ECLIPSE C1™ confocal microscope.

In the case of `C=CC/C=C/N(C)C(=O)CCCCCCCC/C=C/[C@H](CSSC[C@@H](/C=C/CCCCCCCCC(=O)N(C)/C=C/CC=C)NC(C)=O)NC(C)=O` [somocystinamide A, Somocystinamide A], the “colocalization of ceramide and caspase 8” value (0.10 μM, 30 minutes or six hours) is reported as “induced colocalization of ceramide and caspase 8” and the cell surface ceramide (300 nM, 30 minutes after treatment) is reported as “accumulation, and aggregation, of cell surface ceramide”.
